Reference: article PMC2680961, “Homologous desensitization of signalling by the alpha (α) isoform of the human thromboxane A2 receptor: A specific role for nitric oxide signalling” (Biochimica et Biophysica Acta, 2007)
Where a chain is given by its changes, count along the chain named.

Key:
TPα^S329A = target: T1, TPα^S329A (Homo sapiens, UniProt P21731, S329A); assay: [3H]SQ29,548 radioligand binding, Scatchard analysis, HEK.TPα^S329A
T1 construct: expressed in transfected cells
T1 sequence (P21731 1-343 S329A): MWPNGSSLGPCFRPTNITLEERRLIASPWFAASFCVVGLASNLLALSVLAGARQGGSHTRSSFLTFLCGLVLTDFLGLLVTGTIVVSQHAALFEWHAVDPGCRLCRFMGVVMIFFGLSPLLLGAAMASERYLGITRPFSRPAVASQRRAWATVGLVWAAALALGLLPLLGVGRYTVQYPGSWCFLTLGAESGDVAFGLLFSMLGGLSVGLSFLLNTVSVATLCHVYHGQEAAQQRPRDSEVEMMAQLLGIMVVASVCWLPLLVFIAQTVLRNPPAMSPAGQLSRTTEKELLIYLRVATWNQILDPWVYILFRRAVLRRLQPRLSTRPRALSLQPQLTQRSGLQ
Experimental: (§1) Cells were harvested by centrifugation at 500×g at 4 °C for 5 min and washed three times with ice-cold Ca^2+/Mg^2+-free phosphate-buffered saline (PBS). TP radioligand binding assays were carried out at 30 °C for 30 min in 100 μl reactions in the presence of 0–40 nM [^3H] […] Protein determinations were carried out using the Bradford assay.
(§2) Radioligand binding and Scatchard analysis data were analysed using GraphPad Prisim V4.0 programme (GraphPad Software Inc., San Diego CA, USA). Statistical analyses were carried out using the unpaired Student's t test using the Statworks Analysis Package. p-values ≤ 0.01 indicated statistically significant differences.

TPα^T337A = target: T2, TPα^T337A (Homo sapiens, UniProt P21731, T337A); assay: [3H]SQ29,548 radioligand binding, Scatchard analysis, HEK.TPα^T337A
T2 construct: expressed in transfected cells
T2 sequence (P21731 1-343 T337A): T1 sequence (P21731 1-343 S329A) with A329S, T337A
Experimental: as §1, §2

TPβ = target: T3, TPβ (Homo sapiens, UniProt P21731); assay: Intracellular calcium mobilization, HEK.TPβ cells; assay type: cell-based
T3 construct: expressed in transfected cells
T3 sequence (P21731 1-407 isoform P21731-2): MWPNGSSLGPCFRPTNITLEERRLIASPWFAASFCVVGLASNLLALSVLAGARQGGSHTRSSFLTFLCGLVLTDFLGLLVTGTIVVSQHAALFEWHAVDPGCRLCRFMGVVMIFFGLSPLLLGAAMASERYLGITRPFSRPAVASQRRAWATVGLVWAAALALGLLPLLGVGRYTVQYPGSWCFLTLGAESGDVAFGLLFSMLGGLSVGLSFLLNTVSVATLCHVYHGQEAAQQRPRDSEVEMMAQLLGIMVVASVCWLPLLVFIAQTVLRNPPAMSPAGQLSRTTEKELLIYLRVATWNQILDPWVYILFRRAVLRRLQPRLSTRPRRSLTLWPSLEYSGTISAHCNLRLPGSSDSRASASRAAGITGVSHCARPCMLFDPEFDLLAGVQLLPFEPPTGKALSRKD
Experimental: Measurement of intracellular calcium mobilization ([Ca^2+]i) in FURA2/AM preloaded HEK 293 cell lines (2 × 10^6 cells/dish), each transiently co-transfected with pADVA (10 μg), and pCMV:Gαq (25 μg), was carried out as previously described. To investigate the effect of GRK2/βARK1 on TP-mediated [Ca^2+]i mobilization, HEK.TPα or HEK.TPβ cells (2 × 10^6 cells/dish) were co-transfected with pADVA (10 μg), pCMV:Gαq (25 μg) along with pRK5:βARK1^495–689 (25 μg), encoding a dominant negative form of GRK2/βARK1[39]. Approximately 48 h post-transfection, cells were harvested by scraping, washed twice in ice-cold PBS and resuspended in HBSSHB (modified Ca^2+/Mg^2+-free Hank's buffered salt solution, containing […], pH 7.67, 0.1% bovine serum albumin (BSA)) buffer at 10^7 cells/ml and incubated in the dark with 5 μM FURA2/AM for 45 min at 37 °C. Cells were collected by centrifugation (900×g, 5 min), washed once in an equal volume of HBSSHB, and were finally resuspended in HBSSHB buffer at 10^7 cells/ml and kept at room temperature in the dark for 40 min. For each measurement of [Ca^2+]i mobilization, aliquots of cells were diluted to 0.825 × 10^6 cells/ml in HBSSHB, 1 mM CaCl2 and FURA2 fluorescence was recorded (2 ml aliquots of cells) at 37^ °C with gentle stirring with a Perkin Elmer-Cetus LS50-B spectrofluorometer at excitation wavelengths of 340 nm and 380 nm and emission wavelength of 510 nm, respectively.
Cells were stimulated with the TP agonist U46619 (1 μM) and changes in [Ca^2+]i mobilization were monitored as a function of time. To assess agonist-mediated homologous desensitization, cells (0.825 × 10^6 cells/ml; 2 ml per assay) were stimulated with 1 μM U46619 (Primary stimulation) or, as a control, with the vehicle for 4 min; thereafter, cells were collected by centrifugation (900×g, 5 min); were washed twice in 2 ml HBSSHB, 1 mM CaCl2; and finally resuspended in 2 ml HBSSHB,1 mM CaCl2 and were left to recover over various time intervals (ranging from 0 to 60 min); thereafter, cells re-stimulated with 1 μM U46619 (Secondary stimulation) and changes in [Ca^2+]i mobilization were monitored as a function of time. To assess the role of protein kinase (PK) A, PKC or PKG on U46619-mediated desensitization of TPα signalling, cells were pre-incubated with the PKA inhibitor H-89 (10 μM), the PKC inhibitor GF 109203X (50 nM) or the PKG inhibitor KT 5823 (50 nM), for 15 min and respective kinase inhibitors were maintained throughout the primary/secondary U46619-stimulations and during the washes.
The vehicle had no effect on U46619-mediated [Ca^2+]i mobilization. Calibration of the signal was performed in each sample by adding 0.2% Triton X-100 to obtain the maximal fluorescence ratio (Rmax) and then 1 mM EGTA to obtain the minimal fluorescence ratio (Rmin). The ratio of the fluorescence at 340 nm to that at 380 nm is a measure of [Ca^2+]i, which assumes a Kd of 225 nM Ca^2+ for FURA2/AM. The results presented in the figures are representative data from at least three or four independent experiments and are plotted as changes in Ca^2+i mobilized (Δ[Ca^2+]i (nM)) as a function of time (s) upon ligand stimulation. Changes in [Ca^2+]i mobilization were determined by measuring peak rises in [Ca^2+]i mobilized (Δ[Ca^2+]i) and were calculated as mean changes in Δ[Ca^2+]i ± S.E.M. (nM).

TPα^S331,340A = target: T4, TPα^S331,340A (Homo sapiens, UniProt P21731, S331A/S340A); assay: Intracellular calcium mobilization, HEK.TPα^S331,340A cells; assay type: cell-based
T4 construct: expressed in transfected cells
T4 sequence (P21731 whole entry S331A/S340A): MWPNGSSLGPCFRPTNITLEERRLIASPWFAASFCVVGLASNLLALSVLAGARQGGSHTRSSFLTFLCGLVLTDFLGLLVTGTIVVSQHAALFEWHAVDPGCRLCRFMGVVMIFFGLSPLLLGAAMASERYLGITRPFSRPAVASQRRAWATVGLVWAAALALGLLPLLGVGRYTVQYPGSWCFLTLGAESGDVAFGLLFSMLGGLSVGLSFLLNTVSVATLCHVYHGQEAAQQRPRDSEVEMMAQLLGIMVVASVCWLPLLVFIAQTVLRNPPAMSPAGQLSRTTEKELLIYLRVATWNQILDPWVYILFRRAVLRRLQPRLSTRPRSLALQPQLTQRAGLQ
Experimental: Measurement of intracellular calcium mobilization ([Ca^2+]i) in FURA2/AM preloaded HEK 293 cell lines (2 × 10^6 cells/dish), each transiently co-transfected with pADVA (10 μg), and pCMV:Gαq (25 μg), was carried out as previously described. To investigate the effect of GRK2/βARK1 on TP-mediated [Ca^2+]i mobilization, HEK.TPα or HEK.TPβ cells (2 × 10^6 cells/dish) were co-transfected with pADVA (10 μg), pCMV:Gαq (25 μg) along with pRK5:βARK1^495–689 (25 μg), encoding a dominant negative form of GRK2/βARK1[39]. […] For each measurement of [Ca^2+]i mobilization, aliquots of cells were diluted to 0.825 × 10^6 cells/ml in HBSSHB, 1 mM CaCl2 and FURA2 fluorescence was recorded (2 ml aliquots of cells) at 37^ °C with gentle stirring with a Perkin Elmer-Cetus LS50-B spectrofluorometer at excitation wavelengths of 340 nm and 380 nm and emission wavelength of 510 nm, respectively.
Cells were stimulated with the TP agonist U46619 (1 μM) and changes in [Ca^2+]i mobilization were monitored as a function of time. […]
The vehicle had no effect on U46619-mediated [Ca^2+]i mobilization. Calibration of the signal was performed in each sample by adding 0.2% Triton X-100 to obtain the maximal fluorescence ratio (Rmax) and then 1 mM EGTA to obtain the minimal fluorescence ratio (Rmin). […]

Bmax (pmol/mg protein ± S.E.M.) (TPα^S329A) [pmol/mg protein] | Bmax (pmol/mg protein ± S.E.M.) (TPα^T337A) [pmol/mg protein] | Δ[Ca2+]i, U46619-induced (TPβ; + GRK^DN, primary 1 μM U46619) [nM] | Δ[Ca2+]i, U46619-induced (TPβ; + GRK^DN, secondary 1 μM U46619 at 15 min) [nM] | Δ[Ca2+]i, U46619-induced (TPβ; − GRK^DN, primary 1 μM U46619) [nM] | Δ[Ca2+]i, U46619-induced (TPβ; − GRK^DN, secondary 1 μM U46619 at 15 min) [nM] | Δ[Ca2+]i, U46619-induced (TPα^S331,340A; primary 1 μM U46619 4 min) [nM] | Δ[Ca2+]i, U46619-induced (TPα^S331,340A; secondary 1 μM U46619 at 15 min) [nM] | Compound
4.43 ± 0.04 | 4.23 ± 0.04 |  |  |  |  |  |  | O=C(O)CCC/C=C\C[C@@H]1[C@H](CNNC(=O)Nc2ccccc2)[C@H]2CC[C@@H]1O2 [SQ29,548]
 |  | 195 ± 11 | 210 ± 12 | 180 ± 6.7 | 0 | 160 ± 7.2 | 60 ± 10 | CCCCC[C@H](O)/C=C/[C@@H]1[C@@H](C/C=C\CCCC(=O)O)[C@H]2CO[C@@H]1C2 [U46619]
